From the NIST ThermoML archive (doi:10.1016/j.jct.2011.12.013)

Assays:
[1] = Liquid, Custom Made Vibrating Tube Densimeter
[2] = xn = mol fraction of the nth substance listed; conditions: Liquid, Custom Made Vibrating Tube Densimeter, x1 = 1

C=C(C)[C@H]1CC=C(C)CC1 [(R)-1-methyl-4-(1-methylethenyl)cyclohexene]
mass density [kg/m3], [1]
Conditions	283.15 K	298.15 K	313.15 K	328.15 K	343.15 K	358.15 K
20000 kPa	862	851.5	841	830.5	820.1	810.2
25000 kPa	864.9	854.5	844.2	833.8	823.7	813.9
30000 kPa	867.7	857.6	847.2	837.2	827.3	817.6
35000 kPa	870.4	860.9	850.3	840.4	831.1	821.3
40000 kPa	873.3	863.4	853.3	843.8	834.6	824.8

C=C(C)[C@H]1CC=C(C)CC1 [(R)-1-methyl-4-(1-methylethenyl)cyclohexene] + C=C1CC[C@H]2C[C@@H]1C2(C)C
mass density [kg/m3], [2]
Conditions	283.15 K	298.15 K	313.15 K	328.15 K	343.15 K	358.15 K
20000 kPa	862	851.5	841	830.5	820.1	810.2
25000 kPa	864.9	854.5	844.2	833.8	823.7	813.9
30000 kPa	867.7	857.6	847.2	837.2	827.3	817.6
35000 kPa	870.4	860.9	850.3	840.4	831.1	821.3
40000 kPa	873.3	863.4	853.3	843.8	834.6	824.8

C=C1CC[C@H]2C[C@@H]1C2(C)C [(1S,5S)-6,6-dimethyl-2-methylenebicyclo[3.1.1]heptane]
mass density [kg/m3], [1]
Conditions	283.15 K	298.15 K	313.15 K	328.15 K	343.15 K	358.15 K
20000 kPa	891.3	880.2	869.3	858.2	847.7	837
25000 kPa	894.2	883.3	872.6	861.7	851.4	840.9
30000 kPa	897	886.3	875.7	865.2	855	844.8
35000 kPa	899.9	889.3	878.8	868.7	858.6	848.7
40000 kPa	902.6	892.2	882	872.2	862.1	852.6
